Source: patent US20090170827A1, “Acid Addition Salt of Dihydropyridine Derivative” (Daiichi Sankyo Company , Limited, priority 2005, published 2009)

Experiment: Thermal stability test
Assay type: physicochemical
Experimental: The test compound was placed in a glass bottle and allowed to stand under the following conditions (1) and (2). After a certain period of time had elapsed, the residual rate of the active ingredient [compound (I)] in the test compound was measured by high performance liquid chromatography.
(1): Closed state, 60° C.;
(2): Non-closed state, 40° C., humidity 75%.
The measurement conditions in high performance liquid chromatography are as follows.
Column: L-column ODS [4.6 mm×250 mm, manufactured by Chemicals Evaluation and Research Institute, Japan]
Mobile layer: acetonitrile/22 mM potassium dihydrogenphosphate buffer/methanol=455/350/195 (V/V/V) (adjusted to pH 5.5 by phosphoric acid)
Column temperature: 40° C.
Detection wavelength: 220 nm
The residual rate (%) was calculated by the following formula.
The residual rate (%)=[1−(sum of peak area percentages of impurities and decomposed products)]×100

[1] = Condition (1): closed state, 60° C.
[2] = Condition (1): closed state, 60° C., time 0 month
[3] = Condition (1): closed state, 60° C., time 1 month
[4] = Condition (1): closed state, 60° C., time 3 months
[5] = Condition (2): non-closed state, 40° C., humidity 75%
[6] = Condition (2): non-closed state, 40° C., humidity 75%, time 0 month
[7] = Condition (2): non-closed state, 40° C., humidity 75%, time 1 month
[8] = Condition (2): non-closed state, 40° C., humidity 75%, time 3 months
[9] = Condition (1): closed state, 60° C., time 6 months
[10] = Condition (1): closed state, 60° C., time 0 month, dihydrochloride
[11] = Condition (1): closed state, 60° C., time 1 month, dihydrochloride
[12] = Condition (2): non-closed state, 40° C., humidity 75%, dihydrochloride
[13] = Condition (2): non-closed state, 40° C., humidity 75%, time 0 month, dihydrochloride

| Compound | stability (in words) [1] | Residual rate of Compound (I) [2] | Residual rate of Compound (I) [3] | Residual rate of Compound (I) [4] | stability (in words) [5] | Residual rate of Compound (I) [6] | Residual rate of Compound (I) [7] | Residual rate of Compound (I) [8] | Residual rate of Compound (I) [9] | Residual rate of Compound (I) [10] | Residual rate of Compound (I) [11] | stability (in words) [12] | Residual rate of Compound (I) [13] | Residual rate of Compound (I) (Condition (2): non-closed state, 40° C., humidity 75%, time 1 month, Dihydrochloride) | Residual rate of Compound (I) (Condition (2): non-closed state, 40° C., humidity 75%, time 6 months) |
| --- | --- | --- | --- | --- | --- | --- | --- | --- | --- | --- | --- | --- | --- | --- | --- |
| 2-Amino-1,4-dihydro-6-methyl-4-(3-nitrophenyl)-3,5-pyridinedicarboxylic Acid 3-(1-diphenylmethylazetidin-3-yl)ester 5-isopropyl Ester Hemifumarate [Comparative Example 4, reference compound] | did not have high stability | 99.7% | 96.7% | 93.0% | low stability | 99.7% | 94.8% | 91.3% |  |  |  |  |  |  |  |
| 2-Amino-1,4-dihydro-6-methyl-4-(3-nitrophenyl)-3,5-pyridinedicarboxylic acid 3-(1-diphenylmethylazetidin-3-yl)ester 5-isopropyl Ester Dinaphthalenesulfonate [Example 7] | equal in stability | 99.4% | 97.3% | 95.4% |  |  |  |  | 93.0% |  |  |  |  |  |  |
| CC1=C(C(=O)OC(C)C)C(c2cccc([N+](=O)[O-])c2)C(C(=O)OC2CN(C(c3ccccc3)c3ccccc3)C2)=C(N)N1.O=C(O)CC(O)(CC(=O)O)C(=O)O (single isomer, unassigned) [Example 2, 2-Amino-1,4-dihydro-6-methyl-4-(3-nitrophenyl)-3,5-pyridinedicarboxylic acid 3-(1-diphenylmethylazetidin-3-yl)ester 5-isopropyl ester monocitrate] | equal in stability | 98.8% | 96.9% | 95.8% |  |  |  |  |  |  |  |  |  |  |  |
| CC1=C(C(=O)OC(C)C)C(c2cccc([N+](=O)[O-])c2)C(C(=O)OC2CN(C(c3ccccc3)c3ccccc3)C2)=C(N)N1.Cl.Cl (centres unmarked) [Comparative Example 1, 2-Amino-1,4-dihydro-6-methyl-4-(3-nitrophenyl)-3,5-pyridinedicarboxylic acid 3-(1-diphenylmethylazetidin-3-yl)ester 5-isopropyl ester dihydrochloride, reference compound] | extremely low stability |  |  | 58.9% |  |  | 62.9% | 59.0% |  | 98.1% | 60.0% | low stability | 98.1% |  |  |
| CC1=C(C(=O)OC(C)C)C(c2cccc([N+](=O)[O-])c2)C(C(=O)OC2CN(C(c3ccccc3)c3ccccc3)C2)=C(N)N1.Cl.Cl (centres unmarked) [Comparative Example 2, 2-Amino-1,4-dihydro-6-methyl-4-(3-nitrophenyl)-3,5-pyridinedicarboxylic Acid 3-(1-diphenylmethylazetidin-3-yl)ester 5-isopropyl Ester Dihydrochloride, reference compound] | extremely low stability |  |  |  |  |  |  |  |  | 97.3% | 10.3% | extremely low stability | 97.3% | 11.3% |  |
| CC1=C(C(=O)OC(C)C)C(c2cccc([N+](=O)[O-])c2)C(C(=O)OC2CN(C(c3ccccc3)c3ccccc3)C2)=C(N)N1.O=S(=O)(O)O (centres unmarked) [Comparative Example 3, 2-Amino-1,4-dihydro-6-methyl-4-(3-nitrophenyl)-3,5-pyridinedicarboxylic Acid 3-(1-diphenylmethylazetidin-3-yl)ester 5-isopropyl Ester Monosulfate, reference compound] | did not have high stability | 99.5% | 96.9% | 94.9% | low stability | 99.5% | 93.9% | 88.9% | 92.8% |  |  |  |  |  | 84.8% |
